# Assays:
# [1] = test system: ATPase activity endogenous to L929 cell lysate; experiment: Detergent inhibition of ATPase endogenous to L929 cell lysate (ATP remaining by luciferase luminescence, 22° C.); assay type: biochemical; design: key to Relative ATPase Activity, slope det/slope lysate: slope with detergent / slope without; ≥1.0 = 100% activity, 0.5 = 50%
# In short: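 L929 lysate (1.5×10^5 cells/ml, four freeze–thaw cycles) held with detergent at final 1.0, 0.5, 0.1 or 0.05% at 22° C; remaining ATP read over time with luciferase-luciferin reagent (100 μM luciferin, 10 mM MgSO4, pH 7.5). Relative ATPase activity = slope of log % ATP remaining vs time with detergent ÷ slope for lysate-only control.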
# [2] = Precipitation of detergent in reagent composition samples; assay type: physicochemical
# [3] = Example 2, 0.02% detergent, 5 min
# [4] = Example 2, 0.02% detergent, 75 min
# [5] = Example 2, 0.02% detergent, 169 min
# [6] = Example 2, 0.02% detergent, 222 min
# [7] = Example 2, 0.02% detergent, 260 min
smiles,measurement,setting,value
"C[C@H](CCC(=O)[O-])[C@H]1CC[C@H]2[C@@H]3CC[C@@H]4C[C@H](O)CC[C@]4(C)[C@H]3C[C@H](O)[C@]12C.[Na+] [Deoxycholate, sodium deoxycholate]","Relative ATPase Activity, slope det/slope lysate",[1]; 0.02 percent detergent,1.004
same,Slope (log percent ATP remaining vs time in minutes),[1]; 0.02 percent detergent,−0.0064
same,Average Relative Light Unit Values,"[1]; 0.05% detergent, 5 min",5810.85 rlu
same,Percent ATP Remaining,"[1]; 0.05% detergent, 5 min",100%
same,Average Relative Light Unit Values,"[1]; 0.05% detergent, 75 min",1729.95 rlu
same,Percent ATP Remaining,"[1]; 0.05% detergent, 75 min",29.8%
same,Average Relative Light Unit Values,"[1]; 0.05% detergent, 169 min",738.1 rlu
same,Percent ATP Remaining,"[1]; 0.05% detergent, 169 min",12.7%
same,Average Relative Light Unit Values,"[1]; 0.05% detergent, 222 min",375.74 rlu
same,Percent ATP Remaining,"[1]; 0.05% detergent, 222 min",6.5%
same,Average Relative Light Unit Values,"[1]; 0.05% detergent, 260 min",188.59 rlu
same,Percent ATP Remaining,"[1]; 0.05% detergent, 260 min",3.2%
same,"Relative ATPase Activity, slope det/slope lysate",[1]; 0.05 percent detergent,0.984
same,Slope (log percent ATP remaining vs time in minutes),[1]; 0.05 percent detergent,−0.0055
same,Average Relative Light Unit Values,"[1]; 0.1% detergent, 5 min",6422.34 rlu
same,Percent ATP Remaining,"[1]; 0.1% detergent, 5 min",100%
same,Average Relative Light Unit Values,"[1]; 0.1% detergent, 75 min",3730.44 rlu
same,Percent ATP Remaining,"[1]; 0.1% detergent, 75 min",57.9%
same,Average Relative Light Unit Values,"[1]; 0.1% detergent, 169 min",1627.81 rlu
same,Percent ATP Remaining,"[1]; 0.1% detergent, 169 min",25.3%
same,Average Relative Light Unit Values,"[1]; 0.1% detergent, 222 min",1028.42 rlu
same,Percent ATP Remaining,"[1]; 0.1% detergent, 222 min",16.0%
same,Average Relative Light Unit Values,"[1]; 0.1% detergent, 260 min",669.31 rlu
same,Percent ATP Remaining,"[1]; 0.1% detergent, 260 min",10.4%
same,"Relative ATPase Activity, slope det/slope lysate",[1]; 0.10 percent detergent,0.684
same,Slope (log percent ATP remaining vs time in minutes),[1]; 0.10 percent detergent,−0.0038
same,Average Relative Light Unit Values,"[1]; 0.5% detergent, 5 min",3189.56 rlu
same,Percent ATP Remaining,"[1]; 0.5% detergent, 5 min",100%
same,Average Relative Light Unit Values,"[1]; 0.5% detergent, 75 min",2715.45 rlu
same,Percent ATP Remaining,"[1]; 0.5% detergent, 75 min",85.1%
same,Average Relative Light Unit Values,"[1]; 0.5% detergent, 169 min",2268.77 rlu
same,Percent ATP Remaining,"[1]; 0.5% detergent, 169 min",71.1%
same,Average Relative Light Unit Values,"[1]; 0.5% detergent, 222 min",2105.38 rlu
same,Percent ATP Remaining,"[1]; 0.5% detergent, 222 min",66.0%
same,Average Relative Light Unit Values,"[1]; 0.5% detergent, 260 min",1845.36 rlu
same,Percent ATP Remaining,"[1]; 0.5% detergent, 260 min",57.9%
same,"Relative ATPase Activity, slope det/slope lysate",[1]; 0.50 percent detergent,0.158
same,Slope (log percent ATP remaining vs time in minutes),[1]; 0.50 percent detergent,−0.0009
same,Average Relative Light Unit Values,"[1]; 1.0% detergent, 5 min",3.98 rlu
same,Average Relative Light Unit Values,"[1]; 1.0% detergent, 75 min",3.63 rlu
same,Average Relative Light Unit Values,"[1]; 1.0% detergent, 169 min",3.63 rlu
same,Average Relative Light Unit Values,"[1]; 1.0% detergent, 222 min",3.15 rlu
same,Average Relative Light Unit Values,"[1]; 1.0% detergent, 260 min",3.24 rlu
same,Average Relative Light Unit Values,[1]; [3],5962.61 rlu
same,Percent ATP Remaining,[1]; [3],100.00%
same,Average Relative Light Unit Values,[1]; [4],1694.47 rlu
same,Percent ATP Remaining,[1]; [4],28.42%
same,Average Relative Light Unit Values,[1]; [5],368.11 rlu
same,Percent ATP Remaining,[1]; [5],6.17%
same,Average Relative Light Unit Values,[1]; [6],241.05 rlu
same,Percent ATP Remaining,[1]; [6],4.04%
same,Average Relative Light Unit Values,[1]; [7],135.25 rlu
same,Percent ATP Remaining,[1]; [7],2.27%
same,times more ATP present in the sample after four hours when the detergent was present than when it was absent,"[1]; SDS 0.05%, deoxycholate 0.5% and 0.1%",about three to about twenty
same,concentrations which resulted in a 25% or greater decrease in the relative ATPase activity,[1]; compared to reactions in the absence of detergent,≥ 0.1%
same,precipitation in the samples,[2]; 0.1% deoxycholate,slight precipitation
same,precipitation in the samples,[2]; 0.5% deoxycholate,substantial precipitation
